{"source": "ChEMBL document CHEMBL3862002", "about": "“Wortmannilactones I-L, new NADH-fumarate reductase inhibitors, induced by adding suberoylanilide hydroxamic acid to the culture medium of Talaromyces wortmannii” (Bioorg Med Chem Lett, 2016)", "key": {"[1]": {"molecular_target": "T1, Fumarate reductase (Ascaris suum, UniProt F1KRD8)", "T1 sequence (F1KRD8 whole entry)": "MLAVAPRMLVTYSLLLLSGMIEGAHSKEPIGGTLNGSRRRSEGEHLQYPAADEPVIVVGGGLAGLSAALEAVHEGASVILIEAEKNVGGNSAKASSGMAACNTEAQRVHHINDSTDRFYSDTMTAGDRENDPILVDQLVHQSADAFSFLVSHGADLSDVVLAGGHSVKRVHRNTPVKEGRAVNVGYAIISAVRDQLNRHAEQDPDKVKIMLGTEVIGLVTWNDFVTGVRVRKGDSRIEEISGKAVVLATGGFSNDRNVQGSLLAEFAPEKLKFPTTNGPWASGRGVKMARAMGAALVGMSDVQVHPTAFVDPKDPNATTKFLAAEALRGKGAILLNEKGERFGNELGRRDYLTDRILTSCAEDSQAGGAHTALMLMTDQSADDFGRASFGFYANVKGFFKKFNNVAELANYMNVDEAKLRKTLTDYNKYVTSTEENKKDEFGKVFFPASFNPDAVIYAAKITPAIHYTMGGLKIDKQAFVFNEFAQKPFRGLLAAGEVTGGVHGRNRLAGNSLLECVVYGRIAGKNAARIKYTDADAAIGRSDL", "test": "Inhibition of NADH-Fumarate reductase in Ascaris suum muscle sub-mitochondrial particles using disodium fumarate as substrate in presence of NADH after 3 mins measured every 15 sec for 10 mins under anaerobic condition"}, "[2]": {"test": "Inhibition of NADH oxidase in pig heart sub-mitochondrial particles using NADH as substrate after 3 mins measured every 15 sec for 10 mins under aerobic condition", "design": "species or system Sus scrofa"}}, "note": "pIC50: −log10 of the molar value.", "data": [{"smiles": "CC1=C[C@@](C)(O)[C@@H](C)O[C@@H]1/C(C)=C/C=C/C=C/C=C/C(C)=C/[C@]1(C)[C@H]2OC(=O)[C@]1(C)C(=O)[C@@H]2C", "values": [{"measurement": "pIC50", "setting": "[1]", "result": 6.33}]}, {"smiles": "C=C1C=C(C)[C@H](/C(C)=C/C=C/C=C/C=C/[C@]2(C)[C@H]3OC(=O)[C@]2(C)C(=O)[C@@H]3C)O[C@H]1C", "values": [{"measurement": "pIC50", "setting": "[2]", "result": 4.46}, {"measurement": "pIC50", "setting": "[1]", "result": 6.08}]}, {"smiles": "CO[C@@]1(C)C=C(C)[C@H](/C(C)=C/C=C/C=C/C=C/[C@]2(C)[C@H]3OC(=O)[C@]2(C)C(=O)[C@@H]3C)O[C@H]1C", "values": [{"measurement": "pIC50", "setting": "[2]", "result": 4.00}, {"measurement": "pIC50", "setting": "[1]", "result": 6.08}]}, {"smiles": "CC1=C[C@@](C)(O)[C@@H](C)O[C@H]1/C(C)=C/C=C/C=C/C=C/C(C)=C/[C@]1(C)[C@H]2OC(=O)[C@]1(C)C(=O)[C@@H]2C", "values": [{"measurement": "pIC50", "setting": "[1]", "result": 8.62}]}, {"smiles": "CO[C@]1(C)C=C(C)[C@H](/C(C)=C/C=C/C=C/C=C/[C@]2(C)[C@H]3OC(=O)[C@]2(C)C(=O)[C@@H]3C)O[C@H]1C", "values": [{"measurement": "pIC50", "setting": "[2]", "result": 3.84}, {"measurement": "pIC50", "setting": "[1]", "result": 5.87}]}, {"smiles": "CC1=C[C@](C)(O)[C@H](/C(C)=C/C=C/C=C/C=C/[C@]2(C)[C@H]3OC(=O)[C@]2(C)C(=O)[C@@H]3C)O[C@H]1C", "values": [{"measurement": "pIC50", "setting": "[2]", "result": 4.25}, {"measurement": "pIC50", "setting": "[1]", "result": 6.07}]}, {"smiles": "Cc1cc(/C=C/c2ccc3cc(N(C)C)ccc3[n+]2C)c(C)n1-c1ccccc1", "note": "[PYRVINIUM PAMOATE]", "values": [{"measurement": "pIC50", "setting": "[1]", "result": 6.30}]}]}
